{"source": "paper PMC8621570", "about": "“Mechanistic Studies of Antibiotic Adjuvants Reducing Kidney’s Bacterial Loads upon Systemic Monotherapy” (Pharmaceutics, 2021)", "key": {"[1]": {"system": "Acinetobacter baumannii 19606", "test": "Sensitization to rifampin, checkerboard method", "format": "cell-based", "conditions": "adjuvant at 8 µg/mL (10 µM for C14(ω5)OOc10O), Ab 19606, LB", "protocol": "(§1) Bacterial sensitization: Sensitization to antibiotics was determined using the checkerboard method in presence of sub-MIC OAC (2.5, 5, and 10 μM), as described. The synergistic effect of the combinations was expressed in terms of the Sensitization Factor (SF), where SF = (MIC antibiotic alone)/(MIC antibiotic upon combination). Data were obtained from three independent assays performed in duplicate.\n(§2) Figure 4 Hydrophobicity dependence of antibiotics potentiation by lipopeptide analogs. Sensitization of GNB to rifampin and erythromycin (upper and lower panel, respectively) was assessed by MIC experiments performed in LB medium, in presence or absence of an OAC analog whose A2 position was gradually shortened (from c10 to c6). Pseudomonas aeruginosa 27853 (Pa, blue), Klebsiella pneumoniae 1287 (Kp, green), Escherichia coli 25922 (Ec, red), and Acinetobacter baumannii 19606 (Ab, black)."}, "Escherichia coli 25922": {"system": "Escherichia coli 25922", "test": "Sensitization to rifampin, checkerboard method", "format": "cell-based", "conditions": "adjuvant at 8 µg/mL (10 µM for C14(ω5)OOc10O), Ec 25922, LB", "protocol": "as §1, §2"}, "Klebsiella pneumoniae": {"system": "Klebsiella pneumoniae", "test": "Sensitization to rifampin, checkerboard method", "format": "cell-based", "conditions": "adjuvant at 8 µg/mL (10 µM for C14(ω5)OOc10O), Kp, LB", "protocol": "as §1, §2"}, "[2]": {"system": "Pseudomonas aeruginosa 27853", "test": "Sensitization to rifampin, checkerboard method", "format": "cell-based", "conditions": "adjuvant at 8 µg/mL (10 µM for C14(ω5)OOc10O), Pa 27853, LB", "protocol": "as §1, §2"}, "E. coli 25922": {"system": "E. coli 25922", "test": "Dissipation of the transmembrane potential, DiSC3(5)", "format": "cell-based, Escherichia coli", "conditions": "10 μM, compared to positive control 50 µM C12K-7α8", "protocol": "Inner Membrane Damages: Damage inflicted to the cytoplasmic membrane was assessed using 3,3-dipropylthiadicarbocyanine iodide (DiSC3(5)), a lipophilic potentiometric dye that changes its fluorescence intensity in response to changes in transmembrane potential. Bacteria were grown overnight, diluted and at mid-log were adjusted to O.D = 0.1 (600 nm), centrifuged (10,000 RCF, 5 min), and re-suspended in the assay buffer (5 mM HEPES containing 20 mM glucose, 0.2 mM EDTA, and 50 mM KCl). Then, DiSC3(5) dye was added (to final concentration 4 μM) and incubated at 37 °C for 60 min in the dark to allow dye uptake. An aliquot (180 μL) of the bacterial suspension was placed in a 96-well plate and fluorescence was monitored until baseline stabilization (excitation, 622 nm; emission, 670 nm, monitored using Synergy HT, BioTek Instruments, Winooski, VT, USA). […] Fluorescence was immediately monitored continuously for 30 min. […]\nFigure 7 Evidence for proton and ATP leakage across the inner membrane. (a) Dissipation of the transmembrane potential in E. coli 25922 (8.8 ± 1.8 × 10^7 CFU/mL) pre-incubated with DiSC3(5) as determined 15 min after exposure to C14OOc12O (orange) or to C14(ω5)OOc10O (green). […] (b) Intracellular ATP concentrations were determined after 1 h incubation with C14(ω5)OOc10O (green) or C14OOc12O (orange) using E. coli 25922 at 5 × 10^7 CFU/mL. RLU, relative luminescence units."}}}
{"smiles": "CCCCC=CCCCCCCCC(=O)N[C@@H](CCCN)C(=O)N[C@@H](CCCN)C(=O)NCCCCCCCCCC(=O)N[C@@H](CCCN)C(N)=O", "note": "[C14(ω5)OOc10O]", "values": [{"measurement": "Sensitization factor (rifampin MIC alone)/(rifampin MIC in combination)", "setting": "[1]", "result": 4000}, {"measurement": "Sensitization factor (rifampin MIC alone)/(rifampin MIC in combination)", "setting": "Escherichia coli 25922", "result": "32,000"}, {"measurement": "Sensitization factor (rifampin MIC alone)/(rifampin MIC in combination)", "setting": "Klebsiella pneumoniae", "result": "64,000"}, {"measurement": "Sensitization factor (rifampin MIC alone)/(rifampin MIC in combination)", "setting": "[2]", "result": "32,000"}, {"measurement": "Depolarization (dissipation of the transmembrane potential)", "setting": "E. coli 25922", "result": "only partial depolarization"}]}
